Measurements published in US20250134952A1, “METHODS FOR IMPROVING THE EFFICACY OF HDAC INHIBITOR THERAPY AND PREDICTING THE RESPONSE TO TREATMENT WITH HDAC INHIBITOR” (INSTITUT NATIONAL DE LA SANTÉ ET DE LA RECHERCHE MÉDICALE, priority 2021, published 2025).

Legend:
MCF7shctrl and MCF7shTau = experiment: Cell cycle distribution by FACS (propidium iodide and EdU staining); type: cell-based, human; conditions: 100 nM TSA, 48 h
Procedure: FIG. 1: Tau inhibition increases MCF7 breast cancer cell line sensitivity to TSA. (A) Tau protein expression in MCF7, MCF7shctrl and shTau were quantify by Elisa. (B) Effect of 100 nM TSA (48 h) on cell death in the MCF7shctrl and MCF7shTau subclones. Cell death was determined by staining and flow cytometric analysis as described in the materials and methods. (C) Effect of 100 nM TSA (48 h) on apoptosis in the MCF7shctrl and MCF7shTau subclones. Apoptosis was determined by flow cytometric analysis of the PI-positive and Annexin-V-positive cells as described in the materials and methods. (D) Cell cycle distribution was determined by FACS analysis of combined propidium iodide and EdU staining in MCF7shctrl and MCF7shTau in the absence or presence 100 nM TSA, 48 h. Data are mean±SD **P<0.01***P<0.001. All results are representative of three independent experiments.
SH-SY5Y human neuroblastoma cells expressing Tau4R tagged with the streptavidin-binding peptide (SBP) (referred as SH-SY5Y-(SBP)Tau4R) (Chauderlier et al., 2018), SH-SY5Y-Tet-on-Tau4R, Hela cells, MCF7 and MDA-MB-231 were cultured in Dulbecco's Modified Eagle's Medium with 10% fetal bovine serum, 2 mM L-glutamine and 50 U/ml penicillin/streptomycin (Gibco) at 37° C. in 5% CO2 humidified air. Transient and stable transfections experiments were performed using the lipofectamine 3000 reagent (Invitrogen). Transient luciferase assays were performed with the dual-luciferase assay system (Promega). For stable clones, luciferase activities were measured using the luciferase assay system (Promega) and normalized against protein concentration. […]
Cell cycle, Cell death and Apoptosis were analyzed with the Click-It Plus EdU Alexa Fluor 647 kit (Thermofisher), Zombie NIR dye (Zombie NIR Fixable Viability Kit—Biolegend) and Annexin V-FITC Apoptosis Detection Kit II (Calbiochem) according to the manufacturer's guideline. Fluorescence was analyzed using a LSR FORTESSA X20 cytometer (Becton Dickinson).

[1] = system: GAL4 UAS promoter in GAL4UAS responsive luciferase reporter Hela stable cell line; experiment: ChIP-qPCR of H3 acetylation or Tau occupancy on the GAL4UAS promoter; type: cell-based
From the text: (A) Chromatin immunoprecipitations-qPCR analysis of H3 acetylation and Tau occupancy on the GAPDH promoter in MCF7shctrl cells in the indicated conditions. MCF7shctrl cells were subjected to cross-linking by 1% formaldehyde. Chromatin fragments were then immunoprecipitated using antibodies (Ab) against acetylated H3 (ac-H3) or Tau and analyzed by quantitative PCR for the presence of the GAPDH promoter. (B) Functional organization of the p21 promoter. (C) ChIP-qPCR analysis of H3 acetylation in MCF7shctrl or shTau cells or (D) Tau occupancy in MCF7shctrl cells on the p21 promoter. (E) ChIP-qPCR analysis of H3 acetylation or Tau occupancy on the stably transfected GAL4UAS responsive luciferase reporter transfected, or not, with Tau4R, then 24 h later treated with 100 nM TSA for 24 h. Cells were then subjected to cross-linking by 1% formaldehyde. Chromatin fragments were then immunoprecipitated using antibodies (Ab) against acetylated H3 or Tau and analyzed by quantitative PCR for the presence of the GAL4 UAS promoter. Quantification of enrichment is represented as fold-enrichment relative to IgG. Data are mean±SD **P<0.01***P<0.001
The ChIP protocol used was previously described (Lefebvre et al., 2006). […]

CC(/C=C/C(=O)NO)=C\[C@@H](C)C(=O)c1ccc(N(C)C)cc1 [TSA, 2,4-Heptadienamide, 7-[4-(dimethylamino)phenyl]-N-hydroxy-4,6-dimethyl-7-oxo-, (2E,4E,6R)-]
cells in G1 (MCF7shctrl and MCF7shTau; MCF7shTau): 41.4%
cells in G1 (MCF7shctrl and MCF7shTau; MCF7shctrl): 39.6%
cells in S-phase (MCF7shctrl and MCF7shTau; MCF7shctrl): 19.2%
TSA-induced increase of ac-H3 in the presence of transfected Tau4R ([1]; 100 nM TSA, Tau4R transfected HeLa cells): abrogated
Tau4R enrichment ([1]; TSA-treated condition (100 nM), Tau4R transfected): 16 fold
